Data on 13 molecules can be found in patent publication US20240174690A1, “ANNULATED 2-AMINO-3-CYANO THIOPHENES AND DERIVATIVES FOR THE TREATMENT OF CANCER” (BOEHRINGER INGELHEIM INTERNATIONAL GMBH, priority 2021, published 2024).

Test [1] addresses KRAS (G12C)::SOS1 (Homo sapiens (Human), UniProt P01116, C118S/C51S/C80L/G12C). Briefly: KRAS::SOS1 AlphaScreen binding assay, KRAS G12C. From the text:
(§1) This assay can be used to examine the potency with which compounds according to the invention binding to (mutated) KRAS inhibit the protein-protein interaction between SOS1 and (mutated) KRAS e.g., KRAS WT, KRAS G12C, KRAS G12D, KRAS G12V, KRAS G13D. […] Low IC50 values in this assay setting are indicative of strong inhibition of protein-protein interaction between SOS1 and KRAS:
(§2) These assays measure the inhibitory effect of compounds on KRAS mutant protein-protein interactions using the Alpha Screen technology by Perkin Elmer.
(§3) The following (mutant) enzyme forms of KRAS and interacting proteins are used in these assays at the given concentrations: • KRAS (G12D) 1-169, N-terminal 6His-tag, C-terminal avi-tag (Xtal BioStructures, Inc.); final assay concentration 10 nM and SOS1 564-1049, N-terminal 229 GST-tag, TEV cleavage site (Viva Biotech Ltd); final assay concentration 5 nM; • KRAS (G12C) 1-169, N-terminal 6His-tag for purification, cleaved off, C-terminal avi-tag, biotinylated, mutations: C51S, C80L, C118S (in house); final assay concentration 7.5 nM and SOS1 564-1049, N-terminal 229 GST-tag, TEV cleavage site (Viva Biotech Ltd); final assay concentration 5 nM; • KRAS (G12V) 1-169, N-terminal 6His-tag for purification, cleaved off, C-terminal avi-tag, biotinylated, TEV cleavage site, mutation: C118S, GDP loaded (in house); final assay concentration 10 nM and SOS1 564-1049, N-terminal 229 GST-tag, TEV cleavage site (Viva Biotech Ltd); final assay concentration 10 nM; • KRAS (G13D) 1-169, N-terminal 6His-tag for purification, cleaved off, C-terminal avi-tag, biotinylated, TEV cleavage site, mutation: C118S, GDP loaded (in house); final assay concentration 10 nM and SOS1 564-1049, N-terminal 229 GST-tag, TEV cleavage site (Viva Biotech Ltd); final assay concentration 10 nM; • KRAS (WT) 1-169, N-terminal 6His-tag for purification, cleaved off, C-terminal avi-tag, biotinylated, TEV cleavage site, mutation: C118S, GDP loaded (in house); final assay concentration 10 nM and SOS1 564-1049, N-terminal 229 GST-tag, TEV cleavage site (Viva Biotech Ltd); final assay concentration 10 nM.
(§4) Test compounds dissolved in DMSO are dispensed onto assay plates (Proxiplate 384 PLUS, white, PerkinElmer; 6008289) using an Access Labcyte Workstation with the Labcyte Echo 55×. For the chosen highest assay concentration of 100 μM, 150 nL of compound solution are transferred from a 10 mM DMSO compound stock solution. A series of eleven fivefold dilutions per compound are transferred to the assay plate, compound dilutions are tested in duplicates. DMSO are added as backfill to a total volume of 150 nL.
(§5) The assays run on a fully automated robotic system in a darkened room below 100 Lux. To 150 nl of compound dilution 10 μl of a mix including KRAS mutant protein, SOS1 (final assay concentrations see above) and GDP nucleotide (Sigma G7127; final assay concentration 10 μM) in assay buffer (1×PBS, 0.1% BSA, 0.05% Tween 20) are added into columns 1-24.
(§6) After 30 minutes incubation time 5 μl of Alpha Screen bead mix in assay buffer are added into columns 1-23. Bead mix consists of AlphaLISA Glutathione Acceptor Beads (PerkinElmer, Cat No AL109) and AlphaScreen Streptavidin Donor Beads (PerkinElmer Cat No 6760002) in assay buffer at a final assay concentration of 10 μg/ml each.
(§7) Plates are kept at room temperature in a darkened incubator. After an additional 60 minutes incubation time the signal is measured in a PerkinElmer Envision HTS Multilabel Reader using the AlphaScreen specs from PerkinElmer.
(§8) Each plate contains up to 16 wells of a negative control depending on the dilution procedure (platewise or serial) (DMSO instead of test compound; with KRAS mutant::SOS1 GDP mix and bead mix; column 23) and 16 wells of a positive control (DMSO instead of test compound; with KRAS mutant::SOS1 GDP mix w/o bead mix; column 24).
(§9) As internal control known inhibitors of KRAS mutant::SOS1 interaction can be measured on each compound plate. […]
On the technique in general: In Alpha technology, singlet oxygen from a donor bead excites a nearby acceptor bead.

Test [2] has as its system LOVO cells. Briefly: LOVO CTG proliferation assay (120 h) (CRC, G13D). The test is classed as cell-based. Particulars: Homo sapiens, CTG 120 h. As to the method: LOVO CTG Proliferation Assay (120 h) (CRC, G13D)
LOVO cells (ATCC CCL-229) are dispensed into 384-well plates, flat and clear bottom (Greiner, PNr. 781091) at a density of 1000 cells per well in 60 μL DMEM (Sigma D6429)+10% Fetal Calf Serum (HyClone, PNr.: SH30084.03) and incubated at 37° C. in a CO2 incubator overnight. The next day, compounds (10 mM stock in DMSO) are added with the ECHO acoustic liquid handler system (Beckman Coulter), including DMSO controls. Plates are incubated for 120 h, and cell viability is measured using CellTiter-Glo luminescent cell viability reagent (Promega product code G7570). Viability (stated as percent of control) is defined as relative luminescence units RLU of each well divided by the RLU of cells in DMSO controls. IC50 values are determined from viability measurements by non-linear regression using a four-parameter model.

For test [3], the target named is KRAS (G12D)::SOS1 (Homo sapiens (Human), UniProt P01116, G12D). Briefly: KRAS::SOS1 AlphaScreen binding assay, KRAS G12D.
Chain of KRAS (G12D)::SOS1 (P01116 other isoform, or with tags, fused parts or gaps G12D): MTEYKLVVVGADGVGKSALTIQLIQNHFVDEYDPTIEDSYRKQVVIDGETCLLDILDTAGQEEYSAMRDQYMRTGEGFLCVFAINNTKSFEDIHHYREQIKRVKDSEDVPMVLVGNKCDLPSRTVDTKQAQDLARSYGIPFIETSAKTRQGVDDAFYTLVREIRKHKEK
Description: as §1, §2, §3, §4, §5, §6, §7, §8, §9

Chain of KRAS (G12C)::SOS1 (P01116 other isoform, or with tags, fused parts or gaps G12C/C51S/C80L/C118S): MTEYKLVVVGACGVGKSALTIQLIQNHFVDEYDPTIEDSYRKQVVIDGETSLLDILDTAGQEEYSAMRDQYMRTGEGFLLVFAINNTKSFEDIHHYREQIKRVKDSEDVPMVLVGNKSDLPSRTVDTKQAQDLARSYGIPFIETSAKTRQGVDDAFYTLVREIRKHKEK

Take `C[C@H](Oc1cc(-c2ccn(C3COC3)n2)nc(-c2noc3c2CCC[C@@]32CCCc3sc(N)c(C#N)c32)n1)[C@@H]1CCCN1C` [II-109]: the IC50 came out at 2 nM in test [1], 76 nM in test [2] and 3 nM in test [3].

As for `CC(=O)N1CC=C(c2cc(O[C@@H](C)[C@@H]3CCCN3C)nc(-c3noc4c3CCC[C@@]43CCCc4sc(N)c(C#N)c43)n2)CC1` [II-81], the 50% inhibitory concentration (IC50) came out at 3 nM in test [1], 289 nM in test [2] and 5 nM in test [3].

`C[C@H](Oc1cc(-n2ccncc2=O)nc(-c2noc3c2CCC[C@@]32CCCc3sc(N)c(C#N)c32)n1)[C@@H]1CCCN1C` [II-116]: the IC50 in test [1] turned out to be 2 nM; in test [2], 8 nM; in test [3] it was 2 nM.

`C[C@H](Oc1cc(-n2ccc(C#N)n2)nc(-c2noc3c2CCC[C@@]32CCCc3sc(N)c(C#N)c32)n1)[C@@H]1CCCN1C` [II-102]: the IC50 in test [1] came to 2 nM; in test [2], 76 nM; in test [3] it was 3 nM.

`C[C@H](Oc1cc(C2COCCO2)nc(-c2noc3c2CCC[C@@]32CCCc3sc(N)c(C#N)c32)n1)[C@@H]1CCCN1C` (stereo partly drawn) [II-95]: the figures for the IC50 in test [1], in test [2] and in test [3] were 2 nM, 149 nM and 2 nM, respectively.

For `C[C@H](O)Cn1ccc(-c2cc(O[C@@H](C)[C@@H]3CCCN3C)nc(-c3noc4c3CCC[C@@]43CCCc4sc(N)c(C#N)c43)n2)n1` [II-112], the IC50 in test [1] came out at 1 nM; in test [2], 58 nM; in test [3], 1 nM.

As to `C[C@H](Oc1cc(N2CCCC3(COC3)C2)nc(-c2noc3c2CCC[C@@]32CCCc3sc(N)c(C#N)c32)n1)[C@@H]1CCCN1C` [II-72], the IC50 stood at 2 nM in test [1], 55 nM in test [2] and 2 nM in test [3].

As for `C[C@H](Oc1cc(-c2cncs2)nc(-c2noc3c2CCC[C@@]32CCCc3sc(N)c(C#N)c32)n1)[C@@H]1CCCN1C` [II-80], the IC50 in test [1] amounted to 7 nM; in test [2], 561 nM; in test [3], 7 nM.

For `C[C@H](Oc1cc(N2CCNC[C@]23CCOC3)nc(-c2noc3c2CCC[C@@]32CCCc3sc(N)c(C#N)c32)n1)[C@@H]1CCCN1C` [II-50], the IC50 in test [1] was found to be 2 nM; in test [2], 1630 nM; in test [3], 1 nM.

With `C[C@H](Oc1cc(-c2cnn(C)c2)nc(-c2noc3c2CCC[C@@]32CCCc3sc(N)c(C#N)c32)n1)[C@@H]1CCCN1C` [II-74], the IC50 in test [1] came out at 3 nM; in test [2] it was 319 nM; in test [3], 6 nM.

Take `C[C@H](Oc1cc(-n2cncc3ccnc2-3)nc(-c2noc3c2CCC[C@@]32CCCc3sc(N)c(C#N)c32)n1)[C@@H]1CCCN1C` [II-105]: the IC50 in test [1] worked out at 2 nM; in test [2], 150 nM; in test [3] it was 2 nM.

Take `C[C@H](Oc1cc(N2CCNC2=O)nc(-c2noc3c2CCC[C@@]32CCCc3sc(N)c(C#N)c32)n1)[C@@H]1CCCN1C` [II-64]: the IC50 in test [1] was determined as 2 nM; in test [2], 96 nM; in test [3], 1 nM.

Consider `C[C@H](Oc1cc(N2C[C@H](C)N[C@@H](C)C2)nc(-c2noc3c2CCC[C@@]32CCCc3sc(N)c(C#N)c32)n1)[C@@H]1CCCN1C` [II-56], for which the IC50 in test [1] was found to be 2 nM; in test [2], 661 nM; in test [3], 1 nM.

Usually IC50 stands for the concentration needed to halve the response being measured.
